Patent US20130072424A1, “COMPOUNDS AND METHODS FOR PEPTIDE RIBONUCLEIC ACID CONDENSATE PARTICLES FOR RNA THERAPEUTICS” (MARINA BIOTECH, INC., priority 2005, published 2013)

Key:
[1] = system: mouse tail fibroblast (MTF) cells; test: siRNA cell-uptake assay and MFI (Cy5-conjugated siRNA, flow cytometry), Examples 14-16; assay type: cell-based; settings: PN73 mutant series
Experimental: As described above, the cell-uptake assay determines the number of cells that receive Cy5-conjugated siRNA when complexed with a peptide. siRNA cell-uptake was assessed by flow cytometry (refer to Example 2 for details). Uptake was expressed as a percentage calculated by dividing the number of cells containing Cy5-conjugated siRNA by the total number of transfected and untransfected cells in culture. Mean Fluorescence Intensity (MFI) was measured by flow cytometry and determined the amount of Cy5-conjugated siRNA found within cells. The MFI value directly correlates with the amount of Cy5-conjugated siRNA within the cell, thus, a higher MFI value indicates a greater number of Cy5-conjugated siRNA within the cells.
The siRNA cell-uptake assay and MFI measurements were performed as described previously in Examples 2 and 3. […]

in vitro = settings: mouse, mouse tail fibroblast (MTF) cells
Experimental: Fluorescence activated cell sorting (FACS) analysis were performed using Beckman Coulter FC500 cell analyzer (Fullerton, Calif.). The instrument was adjusted according to the fluorescence probes used (FAM or Cy5 for siRNA and FITC and PE for CD14). Propidium iodide (Fluka, St Louis) and AnnexinV (R&D systems, Minneapolis) were used as indicators for cell viability and cytotoxicity. A brief step-by-step protocol is detailed below. • (a) After exposure to the complex of siRNA/peptide, cells were incubated for at least 3 hours. • (b) Wash cells with 200 μl PBS. • (c) Detach cells with 15 μl TE, incubate at 370 C. • (d) Re-suspend cells in five wells with 30 μl FACS solution (PBS with 0.5% BSA, and 0.1% sodium Azide). • (e) Combine all five wells into a tube. • (f) Add PI (Propidium iodide) 5 μl into each tube. • (g) Analyze the cells with fluorescence activated cell sorting (FCAS) according to manufacturer's instructions.
For siRNA uptake analysis, cells were washed with PBS, treated with trypsin (attached cells only), and then analyzed by flow cytometry. […] In order to differentiate the cellular uptake from the membrane insertion of fluorescence labeled siRNA, trypan blue was used to quench the fluorescence on the cell membrane surface.
FITC-tagged peptides were diluted in Opti-MEM® media (Invitrogen) for about 5 minutes at room temperature and then added to cells. Cells were transfected for 3 hours at and washed with PBS, treated with trypsin, and then analyzed by flow cytometry. Cell viability was determined as above. Cellular uptake was distinguished from the membrane insertion using trypan blue to quench any fluorescence on the cell membrane surface.

SMILES | % siRNA Cell-Uptake ([1]; peptide 0.63 μM) [%] | siRNA Cy5 MFI ([1]; peptide 0.63 μM) | % siRNA Cell-Uptake ([1]; peptide 1.25 μM) [%] | siRNA Cy5 MFI ([1]; peptide 1.25 μM) | % siRNA Cell-Uptake ([1]; peptide 2.5 μM) [%] | siRNA Cy5 MFI ([1]; peptide 2.5 μM) | % siRNA Cell-Uptake ([1]; peptide 5 μM) [%] | siRNA Cy5 MFI ([1]; peptide 5 μM) | viability at 0.63 µM (in vitro) [%] | viability at 1.25 µM (in vitro) [%] | viability at 2.5 µM (in vitro) [%] | viability at 5 µM (in vitro) [%]
CC(C)C[C@H](NC(=O)[C@@H](NC(=O)[C@H](CCCCN)NC(=O)[C@H](Cc1ccc(O)cc1)NC(=O)[C@@H](NC(=O)[C@H](Cc1ccc(O)cc1)NC(=O)[C@@H](NC(=O)[C@H](Cc1c[nH]c2ccccc12)NC(=O)[C@H](Cc1ccc(O)cc1)NC(=O)[C@H](CO)NC(=O)[C@H](CCC(=O)O)NC(=O)[C@H](CCCCN)NC(=O)[C@H](CCCNC(=N)N)NC(=O)[C@H](CO)NC(=O)[C@H](CCCNC(=N)N)NC(=O)[C@H](CCCCN)NC(=O)[C@H](CCCNC(=N)N)NC(=O)[C@H](CCCCN)NC(=O)[C@H](CCCCN)NC(=O)CNC(=O)[C@H](CC(=O)O)NC(=O)[C@H](CCCCN)NC(=O)[C@H](CCCCN)NC(=O)[C@H](CCC(N)=O)NC(=O)[C@H](C)NC(=O)[C@H](CCCCN)NC(=O)[C@@H](NC(=O)[C@@H](NC(=O)[C@H](C)NC(=O)[C@H](CCCCN)NC(=O)[C@H](CCCCN)NC(=O)[C@H](CO)NC(=O)CNC(=O)[C@@H](N)CCCCN)C(C)C)[C@@H](C)O)C(C)C)C(C)C)C(C)C)C(=O)N[C@@H](CCCCN)C(=O)N[C@@H](CCC(N)=O)C(N)=O [PN644] | 67 | 4 | 71 | 8 | 70 | 24 | 83 | 37 | 88 | 90 | 86 | 87
CC(C)C[C@H](NC(=O)[C@@H](NC(=O)[C@H](CCCCN)NC(=O)[C@H](Cc1ccc(O)cc1)NC(=O)[C@@H](NC(=O)[C@H](Cc1ccc(O)cc1)NC(=O)[C@@H](NC(=O)[C@H](CO)NC(=O)[C@H](Cc1ccc(O)cc1)NC(=O)[C@H](CO)NC(=O)[C@H](Cc1c[nH]c2ccccc12)NC(=O)[C@H](CCCCN)NC(=O)[C@H](CCCNC(=N)N)NC(=O)[C@H](CO)NC(=O)[C@H](CCCNC(=N)N)NC(=O)[C@H](CCCCN)NC(=O)[C@H](CCCNC(=N)N)NC(=O)[C@H](CCCCN)NC(=O)[C@H](CCCCN)NC(=O)CNC(=O)[C@H](CC(=O)O)NC(=O)[C@H](CCCCN)NC(=O)[C@H](CCCCN)NC(=O)[C@H](CCC(N)=O)NC(=O)[C@H](C)NC(=O)[C@H](CCCCN)NC(=O)[C@@H](NC(=O)[C@@H](NC(=O)[C@H](C)NC(=O)[C@H](CCCCN)NC(=O)[C@H](CCCCN)NC(=O)[C@H](CO)NC(=O)CNC(=O)[C@@H](N)CCCCN)C(C)C)[C@@H](C)O)C(C)C)C(C)C)C(C)C)C(=O)N[C@@H](CCCCN)C(=O)N[C@@H](CCC(N)=O)C(N)=O [PN645] | 68 | 5 | 70 | 11 | 78 | 21 | 88 | 28 | 84 | 89 | 90 | 90
